From PubChem BioAssay AID280 (DTP/NCI, 2004) come the findings set out here.

“And” between values parts separate entries of the source, which are not always exact repeats. Equal values may be shown once. Toxic doses and inconclusive results are not listed.

The assay concerns nude mice, LOX melanoma ip, survival T/C. Kind of assay: NCI In Vivo Anticancer Drug Screen. Data for tumor model Human Amelanotic Melanoma (LOX) (intraperitoneal) in NU/NU BALB/C (nude) mice. The following applies: endpoint: median survival time, higher = longer survival. The protocol: The antitumor activity of compounds was measured in mice bearing transplantable tumors. Survival or tumor size were measured and the results are expressed as the measurement made in the treated group (T) divided by the measurement made in the vehicle treated control group (C). The tumor model used in this assay is Human Amelanotic Melanoma (LOX) (intraperitoneal) in NU/NU BALB/C (nude) mice

The mark [1] stands for this setting: dose: 60.0 mg/kg/injection, schedule: Q04DX003 (ip), vehicle: saline with Tween-80.
Setting [2] is: dose: 120.0 mg/kg/injection, schedule: Q04DX003 (ip), vehicle: saline with Tween-80.
The mark [3] stands for this setting: dose: 50.0 mg/kg/injection, schedule: Q04DX003 (ip), vehicle: saline with Tween-80.
Setting [4] is: dose: 100.0 mg/kg/injection, schedule: Q04DX003 (ip), vehicle: saline with Tween-80.
[5] abbreviates: dose: 200.0 mg/kg/injection, schedule: Q04DX003 (ip), vehicle: saline with Tween-80.
[6] abbreviates: dose: 50.0 mg/kg/injection, schedule: Q04DX003 (ip), vehicle: Klucel (hydroxypropylcellulose) (HPC).
[7] abbreviates: dose: 100.0 mg/kg/injection, schedule: Q04DX003 (ip), vehicle: Klucel (hydroxypropylcellulose) (HPC).
[8] abbreviates: dose: 200.0 mg/kg/injection, schedule: Q04DX003 (ip), vehicle: Klucel (hydroxypropylcellulose) (HPC).
The mark [9] stands for this setting: dose: 18.75 mg/kg/injection, schedule: Q04DX003 (ip), vehicle: Klucel (hydroxypropylcellulose) (HPC).
Where [10] appears, read: dose: 37.5 mg/kg/injection, schedule: Q04DX003 (ip), vehicle: Klucel (hydroxypropylcellulose) (HPC).
Where [11] appears, read: dose: 25.0 mg/kg/injection, schedule: Q04DX003 (ip), vehicle: Klucel (hydroxypropylcellulose) (HPC).

Regarding `Cn1c(=S)sc2nc3ccccc3n2c1=S`, the T/C is, setting by setting: (dose: 30.0 mg/kg/injection, schedule: Q04DX003 (ip), vehicle: saline with Tween-80) 122 % of control; under setting [1], 100 % of control; under setting [2], 104 % of control; (dose: 240.0 mg/kg/injection, schedule: Q04DX003 (ip), vehicle: saline with Tween-80) 108 % of control; (dose: 480.0 mg/kg/injection, schedule: Q04DX003 (ip), vehicle: saline with Tween-80) 94 % of control.

As to `NC(=O)C1C=CN(Cc2ccccc2)C=C1`, the T/C reads like this: under setting [3], 112 % of control; under setting [4], 117 % of control; under setting [5], 123 % of control.

With `COc1cc2c(c(OC)c1O)-c1ccc(OC)c(=O)cc1[C@@H](NC(=O)C(F)(F)F)CC2`, for the setting “dose: 2.5 mg/kg/injection, schedule: Q04DX003 (ip), vehicle: Klucel (hydroxypropylcellulose) (HPC)”, the T/C was 122 % of control.

Regarding `CN1C2C=CC(=O)C1C1C(=O)N(c3ccccc3)C(=O)C12` (stereo not drawn), the T/C under setting [6] was 100 % of control; the T/C under setting [7] was 96 % of control; the T/C under setting [8] is 99 % of control; the T/C (dose: 400.0 mg/kg/injection, schedule: Q04DX003 (ip), vehicle: Klucel (hydroxypropylcellulose) (HPC)) is 100 % of control.

With `O=C1C=CC(=CC=C2C=CN(CCCCCCCCCCCO)C=C2)C=C1`, the T/C is, setting by setting: (dose: 6.25 mg/kg/injection, schedule: Q04DX003 (ip), vehicle: saline with Tween-80) 107 % of control; (dose: 12.5 mg/kg/injection, schedule: Q04DX003 (ip), vehicle: saline with Tween-80) 100 % of control; (dose: 36.0 mg/kg/injection, schedule: Q04DX003 (ip), vehicle: saline with Tween-80) 109 % of control and 110 % of control; under setting [3], 117 % of control; under setting [1], 116 % of control and 120 % of control; under setting [5], 159 % of control.

Take `COc1ccc2oc(-c3ccc(Cl)cc3)c(N3CCN(C)CC3)c2c1`: the T/C is 91 % of control (dose: 75.0 mg/kg/injection, schedule: Q04DX003 (ip), vehicle: saline); 118 % of control (dose: 150.0 mg/kg/injection, schedule: Q04DX003 (ip), vehicle: saline); 90 % of control (dose: 300.0 mg/kg/injection, schedule: Q04DX003 (ip), vehicle: saline).

`CN(C=O)C(C(=O)Nc1cccc2c(OC(=O)C(N(C)C=O)(N(C)C=O)N(C)C=O)c(N=Nc3ccc(S(=O)(=O)Nc4nccs4)cc3)cc(N=Nc3ccc(S(=O)(=O)Nc4nccs4)cc3)c12)(N(C)C=O)N(C)C=O` (tested in a mixture with another compound): the T/C runs as follows: (dose: 75.0 mg/kg/injection, schedule: Q04DX003 (ip), vehicle: saline with Tween-80) 101 % of control; (dose: 150.0 mg/kg/injection, schedule: Q04DX003 (ip), vehicle: saline with Tween-80) 99 % of control; (dose: 300.0 mg/kg/injection, schedule: Q04DX003 (ip), vehicle: saline with Tween-80) 89 % of control; (dose: 600.0 mg/kg/injection, schedule: Q04DX003 (ip), vehicle: saline with Tween-80) 95 % of control; (dose: 1200.0 mg/kg/injection, schedule: Q04DX003 (ip), vehicle: saline with Tween-80) 93 % of control.

As to `CC1/C=C/C=C/CC/C=C/C=C/C=C/C=C/C(OC2OC(C)C(O)C(N)C2O)CC2OC(CC(O)C(O)CCC(O)CC(O)CC(O)CC(=O)OC(C)C(C)C1O)CC(O)C2C(=O)O` (stereo not drawn), the T/C by setting is: (dose: 25.0 mg/kg/injection, schedule: Q04DX003 (ip), vehicle: saline with Tween-80) 101 % of control; under setting [3], 101 % of control; under setting [4], 111 % of control.

Consider `CCN(CC)CC(=O)O[C@]1(CC)C(=O)OCc2c1cc1n(c2=O)Cc2cc3ccccc3nc2-1`, for which the T/C (dose: 18.75 mg/kg/injection, schedule: Q04DX003 (ip), vehicle: water) was 239 % of control.

`O=C1CN(c2ccccc2)C(=O)C1C(=O)Nc1ccc(Cl)c(Cl)c1` (stereo not drawn): the T/C under setting [2] was 115 % of control.

Turning to `COC1CC2C=C(C)/C=C/C=C/C(=O)NC(c3ccccc3)C/C=C/CCC(O)CC(=O)C2=C1O` (stereo not drawn), the T/C runs as follows: under setting [9], 112 % of control; under setting [10], 187 % of control.

Turning to `N/C(=N\OC(=O)Nc1ccc(CSc2ccc(Cl)cc2)o1)c1ccccn1`, the T/C is 97 % of control under setting [9]; 97 % of control under setting [10]; 92 % of control (dose: 75.0 mg/kg/injection, schedule: Q04DX003 (ip), vehicle: Klucel (hydroxypropylcellulose) (HPC)); 102 % of control (dose: 150.0 mg/kg/injection, schedule: Q04DX003 (ip), vehicle: Klucel (hydroxypropylcellulose) (HPC)).

For `Nc1ncc(C2OC(CO)C(O)C2O)c(=O)[nH]1` (stereo not drawn), the T/C by setting is: (dose: 62.5 mg/kg/injection, schedule: Q04DX003 (ip), vehicle: saline) 112 % of control; (dose: 125.0 mg/kg/injection, schedule: Q04DX003 (ip), vehicle: saline) 109 % of control; (dose: 250.0 mg/kg/injection, schedule: Q04DX003 (ip), vehicle: saline) 100 % of control.

As for `NC(=S)c1ncn(C2OC(COC=O)C(OC=O)C2OC=O)c1NC=O` (stereo not drawn), the T/C was 109 % of control under setting [3]; 172 % of control under setting [5]; 188 % of control (dose: 400.0 mg/kg/injection, schedule: Q04DX003 (ip), vehicle: saline with Tween-80).

As to `COc1cc2c(cc1OC)-c1c3c(cc4c1[C@@H](C2)N(C)CC4)OCO3`, the T/C reads like this: (dose: 32.0 mg/kg/injection, schedule: Q04DX003 (ip), vehicle: distilled water + Tween-80 + alcohol) 115 % of control; (dose: 90.0 mg/kg/injection, schedule: Q04DX003 (ip), vehicle: distilled water + Tween-80 + alcohol) 109 % of control; (dose: 150.0 mg/kg/injection, schedule: Q04DX003 (ip), vehicle: distilled water + Tween-80 + alcohol) 123 % of control.

Turning to `CC(C)(C)NC(C1=CC(C)(C)c2ccccc2C1=O)c1ccccc1` (stereo not drawn), the T/C under setting [11] was 107 % of control, the T/C under setting [6] was 113 % of control, the T/C under setting [7] was 110 % of control and the T/C under setting [8] is 118 % of control.

As to `O=c1[nH]cnc2c1cnn2CN1CCOCC1`, the T/C was 93 % of control under setting [11], 123 % of control under setting [6] and 109 % of control under setting [7].

Turning to `O=NN(CCCl)C(=O)NCCCl`, the T/C (dose: 1.88 mg/kg/injection, schedule: Q01DX005 (ip), vehicle: saline + alcohol) is 122 % of control; the T/C (dose: 2.5 mg/kg/injection, schedule: Q01DX015 (ip), vehicle: saline + alcohol) is 185 % of control; the T/C (dose: 3.75 mg/kg/injection, schedule: Q01DX005 (ip), vehicle: saline + alcohol) was 163 % of control; the T/C (dose: 5.0 mg/kg/injection, schedule: Q01DX001 (ip), vehicle: saline + alcohol) is 117 % of control; the T/C (dose: 5.0 mg/kg/injection, schedule: Q01DX015 (ip), vehicle: saline + alcohol) was 193 % of control; the T/C (dose: 7.5 mg/kg/injection, schedule: Q01DX005 (ip), vehicle: saline + alcohol) is 218 % of control. Also, the T/C runs as follows: (dose: 10.0 mg/kg/injection, schedule: Q04DX003 (ip), vehicle: saline + alcohol) 185 % of control; (dose: 12.0 mg/kg/injection, schedule: Q04DX003 (ip), vehicle: saline + alcohol) 118 % of control; (dose: 12.0 mg/kg/injection, schedule: Q04DX003 (iv), vehicle: saline + alcohol) 220 % of control; (dose: 15.0 mg/kg/injection, schedule: Q01DX005 (ip), vehicle: saline + alcohol) 191 % of control; (dose: 18.0 mg/kg/injection, schedule: Q04DX003 (ip), vehicle: saline + alcohol) 116 % of control; (dose: 18.0 mg/kg/injection, schedule: Q04DX003 (iv), vehicle: saline + alcohol) 331 % of control. In addition, the T/C is 177 % of control (dose: 20.0 mg/kg/injection, schedule: Q01DX001 (ip), vehicle: saline + alcohol); 175 % of control (dose: 20.0 mg/kg/injection, schedule: Q04DX003 (ip), vehicle: saline + alcohol); 116 % of control (dose: 27.0 mg/kg/injection, schedule: Q04DX003 (ip), vehicle: saline + alcohol); 331 % of control (dose: 27.0 mg/kg/injection, schedule: Q04DX003 (iv), vehicle: saline + alcohol); 171 % of control (dose: 40.0 mg/kg/injection, schedule: Q01DX001 (ip), vehicle: saline + alcohol); 218 % of control (dose: 40.0 mg/kg/injection, schedule: Q04DX003 (ip), vehicle: saline + alcohol). Moreover, the T/C (dose: 80.0 mg/kg/injection, schedule: Q01DX001 (ip), vehicle: saline + alcohol) is 196 % of control.
